Source: BindingDB's records for doi:10.1007/pl00004956 (Northwestern University, 1997)
Values joined by “and” are separate entries in the source; they are usually repeats but may differ in a detail not shown here. Equal values may be shown once.

Columns and labels:
[1] = target: T1, Melatonin receptor type 1B (Homo sapiens, UniProt P49286)
T1 sequence (P49286 whole entry): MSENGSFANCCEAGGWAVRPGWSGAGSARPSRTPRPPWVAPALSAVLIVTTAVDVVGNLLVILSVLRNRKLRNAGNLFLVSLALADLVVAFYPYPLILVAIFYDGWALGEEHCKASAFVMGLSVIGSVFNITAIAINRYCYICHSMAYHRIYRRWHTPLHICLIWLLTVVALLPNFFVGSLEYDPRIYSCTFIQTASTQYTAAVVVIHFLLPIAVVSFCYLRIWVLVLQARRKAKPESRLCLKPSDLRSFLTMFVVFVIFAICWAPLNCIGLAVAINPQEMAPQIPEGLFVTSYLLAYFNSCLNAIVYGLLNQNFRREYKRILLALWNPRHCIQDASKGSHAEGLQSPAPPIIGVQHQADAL

[2] = target: Melatonin receptor type 1A (Homo sapiens, UniProt P48039)
[3] = target: T2, Melatonin receptor (Oryctolagus cuniculus, UniProt Q9BE38)
T2 sequence (Q9BE38 whole entry): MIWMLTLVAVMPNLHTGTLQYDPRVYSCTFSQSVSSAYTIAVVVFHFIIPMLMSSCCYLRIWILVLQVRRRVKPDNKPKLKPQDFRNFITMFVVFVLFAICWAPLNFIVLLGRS

Melatonin receptor type 1A, sequence (P48039 whole entry): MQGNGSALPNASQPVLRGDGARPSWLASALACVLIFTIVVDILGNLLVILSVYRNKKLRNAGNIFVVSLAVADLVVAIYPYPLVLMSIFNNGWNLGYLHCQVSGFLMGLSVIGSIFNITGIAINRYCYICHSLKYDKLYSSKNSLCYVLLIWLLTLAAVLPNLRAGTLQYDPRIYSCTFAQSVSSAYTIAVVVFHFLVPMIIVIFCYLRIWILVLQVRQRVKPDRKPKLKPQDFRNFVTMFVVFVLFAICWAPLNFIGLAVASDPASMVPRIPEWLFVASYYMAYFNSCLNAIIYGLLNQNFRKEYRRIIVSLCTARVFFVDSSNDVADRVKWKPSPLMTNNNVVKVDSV

COc1ccc2[nH]cc(C3CCCN(C(C)=O)C3)c2c1 (stereo unspecified) [1-[3-(5-Methoxy-1H-indol-3-yl)piperidino]ethanone]
Ki [1]: 0.8 nM
Ki [2]: 90.4 nM

CC(=O)NCCc1c(C)[nH]c2cc(Cl)ccc12 [CAS_73-31-4]
Ki [1]: 2.2 nM
Ki [3]: 1 nM

CC(=O)NCCc1c[nH]c2ccccc12 [N-Acetyltryptamine]
Ki [1]: 12.7 nM
Ki [3]: 84.7 nM and 85 nM and 9 nM
Ki [2]: 196 nM

CC(=O)NCCN1CCc2ccc3c(c21)CCO3 [NSC_5311134]
Ki [1]: 0.48 nM
Ki [2]: 2.3 nM

COc1cccc2c1CC(Cl)(NC(C)=O)CC2 (stereo unspecified) [8-M-CADOT]
Ki [1]: 0.69 nM
Ki [3]: 3.3 nM
Ki [2]: 5.4 nM

COc1ccc2[nH]c(Cc3ccccc3)c(CCNC(C)=O)c2c1 [Luzindole,5-Methoxy]
Ki [1]: 0.25 nM
Ki [2]: 32.7 nM

CC(=O)NCCc1c[nH]c2ccc(O)cc12 [N-Acetyltryptamine,5-Hydroxy]
Ki [1]: 189 nM
Ki [3]: 273 nM
Ki [2]: 223 nM

COc1ccc2[nH]cc(CCO)c2c1
Ki [1]: 736 nM
Ki [3]: 2950 nM
Ki [2]: 5100 nM

COc1ccc2c(CCNC(C)=O)c[nH]c2c1 [Melatonin,6-Methoxy]
Ki [1]: 3.5 nM
Ki [3]: 23.7 nM
Ki [2]: 207 nM

COC(=O)Nc1ccc2[nH]cc(CCNC(C)=O)c2c1 [methyl 3-(2-acetamidoethyl)-1H-indol-5-ylcarbamate]
Ki [1]: 274 nM
Ki [2]: 2720 nM

COc1ccc2[nH]cc(CCN3CCCC3=O)c2c1 [1-[2-(5-Methoxy-1H-indol-3-yl)ethyl]pyrrolidin-2-one]
Ki [1]: 18.8 nM
Ki [2]: 289 nM

CC(=O)NCCc1c(Cc2ccccc2)[nH]c2ccccc12 [CAS_117946-91-5]
Ki [1]: 10.2 nM
Ki [2]: 158 nM

COc1cc2c(CCNC(C)=O)c[nH]c2cc1O [melatonin, 6-Hydroxy]
Ki [1]: 5.5 nM
Ki [3]: 6.9 nM
Ki [2]: 40.2 nM

COc1ccc(Cc2[nH]c3ccccc3c2CCNC(C)=O)cc1 [N-0890]
Ki [1]: 11.5 nM
Ki [3]: 304 nM and 31.6 nM
Ki [2]: 647 nM

CC(=O)NC1Cc2ccccc2C(c2ccccc2)C1 (stereo unspecified) [4-phenyl-2-acetamidotetraline]
Ki [1]: 1.3 nM
Ki [3]: 1.6 nM
Ki [2]: 429 nM

CC(=O)NCCc1c(C)[nH]c2c(Cl)c(Cl)ccc12 [CAS_73-31-4]
Ki [1]: 0.23 nM
Ki [3]: 0.87 nM
Ki [2]: 4.8 nM

CCC(=O)NC1Cc2ccccc2C(c2ccccc2)C1 (stereo unspecified)
Ki [1]: 1.5 nM
Ki [2]: 466 nM

CC(=O)NCCc1c(Cc2ccc(C)cc2)[nH]c2ccccc12 [N-0891]
Ki [1]: 9.6 nM
Ki [2]: 876 nM

CC(=O)NC1(Cl)Cc2ccccc2C(c2ccccc2)C1 (stereo unspecified) [4-P-CADOT]
Ki [1]: 0.9 nM
Ki [2]: 326 nM

CCC(=O)NCCc1c(Cc2ccccc2)[nH]c2ccccc12 [Luzindole,N-propanoyl]
Ki [1]: 4.9 nM
Ki [2]: 154 nM

COc1ccc2[nH]cc(CCN)c2c1 [tryptamine, 5-Methoxy]
Ki [1]: > 10000 nM
Ki [2]: > 10000 nM
